Laboratory results as given in patent publication US20090203731A1, “TREATMENT OF DEPRESSION AND OTHER AFFECTIVE DISORDERS” (H. Lundbeck A/S, priority 2003, published 2009).

Assays:
Format in all cases: in vivo
[1] = tested on: forced swimming-induced immobility in mice; experiment: mouse forced swim test (inhibition of forced swimming-induced immobility); conditions: male NMRI/BOM mice
Source text: (§1) In order to modulate the activity of systems responsible for antidepressant activity, we have characterized the interaction between gaboxadol and escitalopram (an SSRI) in a behavioral model of serotonin reuptake inhibition, i.e. the mouse 5-HTP potentiation test, and a model that is predictive of antidepressant activity, i.e. the mouse forced swim test (cf. C. Sánchez et al., 2003, Psychopharmacology 167, 353-362).
(§2) Male NMRI/BOM mice (18-25 g; Bomholtgaard, Denmark) were used. The mice were housed in plastic cages (35×30×12 cm), 10 animals in each, and habituated to the animal facilities for at least a week before test. The room temperature (21±2° C.), relative humidity (55±5%), and air exchange (16 times per h) were automatically controlled. The animals had free access to commercial food pellets and tap water before test.
A mouse that is forced to swim in a spatially constrained container will exert a characteristic immobile posture. Pretreatment with an antidepressant will counteract this effect. The test was conducted as described in detail by Sánchez and Meier (Psychopharmacol. 129, 197-205, 1997). Briefly, a fully automated test system with 6 swim units (2000 ml glass jars filled with 1200 ml soiled water (23-25° C.) in which a mouse had been placed previously) was used. […] The accumulated duration of immobility was measured during the last 3 min. […]

[2] = tested on: 5-HTP-induced behaviour in mice; experiment: mouse 5-HTP potentiation test (potentiation of 5-HTP-induced behaviour); conditions: gaboxadol 2.5 mg/kg with escitalopram 0.5 to 0.025 mg/kg, s.c., 30 min before i.v. 5-HTP 100 mg/kg, male NMRI/BOM mice
Source text: as §1, §2
The test procedure for studies in mice is described in detail by Hyttel et al., 1992, J. Neural. Transm. Gen. Sect. 88, 157-60. Briefly, 30 min after subcutaneous (s.c.) administration of test compound, mice were given intravenous (i.v.) 5-HTP (100 mg/kg). Thereafter the animals were evaluated in their home cage during a 15-min observation period with respect to stereotypy (lateral head movements), tremor, and hind limb abduction. One point was given for each symptom being present. A total of 8-16 mice were used per dose. Inhibition of forced swimming-induced immobility.

[3] = tested on: rat chronic mild stress (CMS) model of depression; experiment: rat chronic mild stress (CMS) model of depression, sucrose consumption; conditions: male Wistar rats
Source text: The rat chronic mild stress (CMS) model of depression has a high degree of predictive validity for antidepressant activity (Willner, 1997, Psychopharmacol. 134, 319-329). Furthermore, the procedure is an appropriate model to study onset of antidepressant action in animals (C. Sánchez et al., 2003, Behavioural Pharmacology 14, 465-470). The principle of the model is based on the relation between stress and affective disorders. Rats exposed to chronic stress will show a reduced sensitivity to rewards (e.g. a palatable sucrose solution).
Male Wistar rats (Gorzkowska, Warsaw) were brought into the laboratory two months before the start of the experiment. The animals were singly housed with food and water freely available, and maintained on a 12-h light/dark cycle at a temperature of 22±2° C., except as described below.
The animals were first trained to consume a 1% sucrose solution; training consisted of eight 1 h baseline tests in which sucrose was presented, in the home cage, following 14 h food and water deprivation; intake was measured by weighing pre-weighed bottles containing the sucrose solution, at the end of the test. Subsequently, sucrose consumption was monitored, under similar conditions, throughout the whole experiment. […] Body weights were assessed a baseline and by the end of drug treatment.

SMILES: Oc1noc2c1CCNC2 [gaboxadol, Gaboxadol]
- activity by itself in the forced swim test ([1]; gaboxadol 2.5 mg/kg alone, 30 min before test): not active by itself
- potentiation of the antidepressant-like effect of escitalopram in the forced swim test ([1]; gaboxadol 2.5 mg/kg with escitalopram 2.5 and 5 mg/kg): potentiated the antidepressant-like effect of escitalopram (2.5 and 5 mg/kg) significantly
- potentiation of the acute effects of escitalopram in the 5-HTP potentiation test [2]: strongly potentiated the acute effects of escitalopram
- effect in the rat chronic mild stress model at 2.5 mg/kg per day ([3]; 2.5 mg/kg per day, intraperitoneal): clear and significant effect
- anti-depressant-like effect in the rat chronic mild stress model ([3]; twice daily intraperitoneal injections for five weeks): significant anti-depressant-like effect
